Experiments:
[1] = target: T1, S. stipitis xylose transporter RGT2, SEQ ID NO: 64, in S. cerevisiae Y-50049-YXI-RGT2 (NRRL Y-50465) (Scheffersomyces stipitis, UniProt J9PF54); assay: Aerobic xylose uptake kinetics (Lineweaver-Burk), Y-50049-YXI-RGT2; assay type: cell-based; details: whole cells, 30° C.
T1 construct: whole-cell xylose uptake; S. stipitis CUG codons are read as Leu in this host
T1 sequence (J9PF54 1-528): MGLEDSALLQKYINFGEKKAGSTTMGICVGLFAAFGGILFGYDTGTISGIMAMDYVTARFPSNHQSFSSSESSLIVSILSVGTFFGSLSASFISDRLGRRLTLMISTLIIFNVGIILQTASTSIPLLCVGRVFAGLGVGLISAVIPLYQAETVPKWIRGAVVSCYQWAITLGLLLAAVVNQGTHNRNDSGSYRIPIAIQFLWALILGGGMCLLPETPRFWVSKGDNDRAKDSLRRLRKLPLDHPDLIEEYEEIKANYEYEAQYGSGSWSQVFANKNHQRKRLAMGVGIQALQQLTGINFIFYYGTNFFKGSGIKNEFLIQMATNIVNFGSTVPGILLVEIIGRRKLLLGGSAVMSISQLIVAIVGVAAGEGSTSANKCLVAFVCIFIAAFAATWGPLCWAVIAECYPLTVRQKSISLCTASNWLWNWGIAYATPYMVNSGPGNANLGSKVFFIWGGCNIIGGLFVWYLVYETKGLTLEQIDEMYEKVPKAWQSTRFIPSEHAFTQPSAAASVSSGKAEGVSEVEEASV
Source text: (§1) A portion of promoter and terminator for PGK1 was amplified from S. cerevisiae NRRL Y-50049 genomic DNA using primers PGK_PL/PGK_PR and PGK_TL/PGK_TR, as detailed in the Description of Sequences above. Amplified PGK1 fragments were cloned into vector pRS42H resulting in pRS42H -PGK1 promoter-terminator. Six putative xylose transporter genes XUT4, XUT5, XUT6, XUT7, RGT2, and SUT4 were amplified using various primers from the genomic DNA of S. stipitis. Each xylose transporter gene was cloned into the S. cerevisiae expression vector pRS42H-PGK1 promoter-terminator with proper restriction endonuclease sites designed. All DNA oligos were synthesized by IDT (Coralville, Iowa). […]
(§2) The relative performance of yeast strains Y-50746, Y-50747, Y-50748, Y-50749, Y-50465, and Y-50466 containing a xylose isomerase gene and a xylose xylose transporter gene was further assessed in cell populations that were first grown aerobically on xylose and then transferred into fresh culture medium at high cell density. […] Aerobic xylose uptake rate was assessed for the host strain Y-50049−YXI and each of its six xylose transporter-expressing derivatives. […] Once xylose was added to cultures, the reaction timing began, and the first sample was immediately taken, diluted for optical density reading, and centrifuged (10,000 rpm, 6 min). […]

[2] = target: T2, S. stipitis xylose transporter SUT4, SEQ ID NO: 69, in S. cerevisiae Y-50049-YXI-SUT4 (NRRL Y-50748) (Scheffersomyces stipitis, UniProt J9Q8Z9); assay: Aerobic xylose uptake kinetics (Lineweaver-Burk), Y-50049-YXI-SUT4; assay type: cell-based; details: whole cells, 30° C.
T2 construct: whole-cell xylose uptake; S. stipitis CUG codons are read as Leu in this host
T2 sequence (J9Q8Z9 1-549): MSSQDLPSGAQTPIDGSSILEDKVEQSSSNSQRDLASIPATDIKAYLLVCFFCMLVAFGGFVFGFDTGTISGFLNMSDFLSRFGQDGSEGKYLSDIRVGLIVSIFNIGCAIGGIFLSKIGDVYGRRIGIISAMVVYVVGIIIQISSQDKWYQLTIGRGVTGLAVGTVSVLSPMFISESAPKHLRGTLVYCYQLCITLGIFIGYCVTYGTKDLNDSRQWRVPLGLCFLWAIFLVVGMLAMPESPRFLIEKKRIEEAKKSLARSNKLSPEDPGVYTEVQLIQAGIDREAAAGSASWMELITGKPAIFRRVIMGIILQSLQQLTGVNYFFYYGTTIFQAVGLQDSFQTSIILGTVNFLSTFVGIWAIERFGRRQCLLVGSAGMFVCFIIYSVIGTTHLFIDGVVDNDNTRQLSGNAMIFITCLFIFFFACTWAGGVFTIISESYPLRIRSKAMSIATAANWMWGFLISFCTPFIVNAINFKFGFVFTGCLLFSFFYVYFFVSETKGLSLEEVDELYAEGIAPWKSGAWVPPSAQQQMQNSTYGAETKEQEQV
Source text: as §1, §2

[3] = target: T3, S. stipitis xylose transporter XUT5, SEQ ID NO: 66, in S. cerevisiae Y-50049-YXI-XUT5 (NRRL Y-50746) (Scheffersomyces stipitis, UniProt A3LY79); assay: Aerobic xylose uptake kinetics (Lineweaver-Burk), Y-50049-YXI-XUT5; assay type: cell-based; details: whole cells, 30° C.
T3 construct: whole-cell xylose uptake; S. stipitis CUG codons are read as Leu in this host
Source text: as §1, §2

[4] = target: T4, S. stipitis xylose transporter XUT6, SEQ ID NO: 67, in S. cerevisiae Y-50049-YXI-XUT6 (NRRL Y-50749) (Scheffersomyces stipitis, UniProt J9Q9F3); assay: Aerobic xylose uptake kinetics (Lineweaver-Burk), Y-50049-YXI-XUT6; assay type: cell-based; details: whole cells, 30° C.
T4 construct: whole-cell xylose uptake; S. stipitis CUG codons are read as Leu in this host
T4 sequence (J9Q9F3 1-544): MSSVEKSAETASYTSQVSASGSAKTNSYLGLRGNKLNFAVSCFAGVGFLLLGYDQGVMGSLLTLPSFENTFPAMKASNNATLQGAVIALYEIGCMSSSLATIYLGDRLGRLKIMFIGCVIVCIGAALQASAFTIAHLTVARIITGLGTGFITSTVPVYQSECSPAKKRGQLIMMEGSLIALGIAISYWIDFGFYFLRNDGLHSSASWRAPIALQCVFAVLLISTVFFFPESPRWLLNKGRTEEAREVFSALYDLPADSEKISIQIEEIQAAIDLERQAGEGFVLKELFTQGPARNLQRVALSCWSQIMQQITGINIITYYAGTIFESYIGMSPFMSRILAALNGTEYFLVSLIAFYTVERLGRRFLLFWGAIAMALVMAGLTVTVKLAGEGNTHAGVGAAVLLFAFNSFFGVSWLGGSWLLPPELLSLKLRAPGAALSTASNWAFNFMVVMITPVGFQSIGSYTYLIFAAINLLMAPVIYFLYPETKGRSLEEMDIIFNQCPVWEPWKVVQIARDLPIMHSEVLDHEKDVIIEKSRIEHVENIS
Source text: as §1, §2

[5] = target: T5, S. stipitis xylose transporter XUT4, SEQ ID NO: 68, in S. cerevisiae Y-50049-YXI-XUT4 (NRRL Y-50747) (Scheffersomyces stipitis, UniProt J9PED0); assay: Aerobic xylose uptake kinetics (Lineweaver-Burk), Y-50049-YXI-XUT4; assay type: cell-based; details: whole cells, 30° C.
T5 construct: whole-cell xylose uptake; S. stipitis CUG codons are read as Leu in this host
Source text: as §1, §2

[6] = system: native xylose uptake of S. cerevisiae Y-50049-YXI (control host strain, YXI xylose isomerase SEQ ID NO: 63, no added xylose transporter gene); assay: Aerobic xylose uptake kinetics (Lineweaver-Burk), host strain Y-50049-YXI (control); assay type: cell-based; details: whole cells, 30° C.
Source text: The relative performance of yeast strains Y-50746, Y-50747, Y-50748, Y-50749, Y-50465, and Y-50466 containing a xylose isomerase gene and a xylose xylose transporter gene was further assessed in cell populations that were first grown aerobically on xylose and then transferred into fresh culture medium at high cell density. Under these conditions a high metabolic carbon demand creates the potential for transport to be a limiting factor and amplifies volumetric xylose consumption from the medium. Aerobic xylose uptake rate was assessed for the host strain Y-50049−YXI and each of its six xylose transporter-expressing derivatives. […] Once xylose was added to cultures, the reaction timing began, and the first sample was immediately taken, diluted for optical density reading, and centrifuged (10,000 rpm, 6 min). […] Subsequent samples were collected at 2 h, 4 h, 6 h, and the specific xylose consumption rate (V) was calculated as the rate of decline in xylose concentration (X)/per dry cell concentration (b), assuming the linear correlation of dry yeast biomass concentration with absorbance, b=(0.167 g/L). […] The relative statistical differences between strain performances due to the specific transporter gene expressed were determined by running a two-way analysis of variance of V as a function of the transporter gene and the initial xylose concentration. […]

[7] = target: T6, S. stipitis xylose transporter XUT7, SEQ ID NO: 65, in S. cerevisiae Y-50049-YXI-XUT7 (NRRL Y-50466) (Scheffersomyces stipitis, UniProt J9PER1); assay: Aerobic xylose uptake kinetics (Lineweaver-Burk), Y-50049-YXI-XUT7; assay type: cell-based; details: whole cells, 30° C.
T6 construct: whole-cell xylose uptake; S. stipitis CUG codons are read as Leu in this host
T6 sequence (J9PER1 1-418): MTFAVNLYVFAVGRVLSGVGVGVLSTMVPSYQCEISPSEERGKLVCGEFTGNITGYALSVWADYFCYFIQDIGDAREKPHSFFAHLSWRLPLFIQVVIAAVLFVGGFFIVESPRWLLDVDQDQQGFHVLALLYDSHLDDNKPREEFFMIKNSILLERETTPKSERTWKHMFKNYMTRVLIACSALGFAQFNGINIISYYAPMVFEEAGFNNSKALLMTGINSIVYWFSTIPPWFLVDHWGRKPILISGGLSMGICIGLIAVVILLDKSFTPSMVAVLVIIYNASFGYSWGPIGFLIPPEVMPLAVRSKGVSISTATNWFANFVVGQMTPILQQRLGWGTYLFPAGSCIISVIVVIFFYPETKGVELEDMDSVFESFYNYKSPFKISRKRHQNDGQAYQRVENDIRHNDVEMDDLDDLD
Source text: as §1, §2

[8] = system: S. stipitis Y-7124 xylose proton symporters; details: associated with S. stipitis symport, approximate (~); cited from earlier work

T3 sequence (A3LY79 entry or part of it): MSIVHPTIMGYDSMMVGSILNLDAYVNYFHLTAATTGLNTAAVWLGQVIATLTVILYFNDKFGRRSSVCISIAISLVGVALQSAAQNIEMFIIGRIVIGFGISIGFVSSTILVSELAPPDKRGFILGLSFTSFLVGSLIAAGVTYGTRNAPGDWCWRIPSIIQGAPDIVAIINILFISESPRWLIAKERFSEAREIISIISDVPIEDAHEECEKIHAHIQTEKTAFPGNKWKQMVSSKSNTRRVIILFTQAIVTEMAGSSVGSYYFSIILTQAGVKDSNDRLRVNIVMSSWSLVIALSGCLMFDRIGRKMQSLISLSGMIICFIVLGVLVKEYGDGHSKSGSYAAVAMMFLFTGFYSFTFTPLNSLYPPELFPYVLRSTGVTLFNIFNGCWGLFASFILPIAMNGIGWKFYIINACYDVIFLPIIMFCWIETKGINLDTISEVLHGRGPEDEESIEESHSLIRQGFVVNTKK
T5 sequence (J9PED0 entry or part of it): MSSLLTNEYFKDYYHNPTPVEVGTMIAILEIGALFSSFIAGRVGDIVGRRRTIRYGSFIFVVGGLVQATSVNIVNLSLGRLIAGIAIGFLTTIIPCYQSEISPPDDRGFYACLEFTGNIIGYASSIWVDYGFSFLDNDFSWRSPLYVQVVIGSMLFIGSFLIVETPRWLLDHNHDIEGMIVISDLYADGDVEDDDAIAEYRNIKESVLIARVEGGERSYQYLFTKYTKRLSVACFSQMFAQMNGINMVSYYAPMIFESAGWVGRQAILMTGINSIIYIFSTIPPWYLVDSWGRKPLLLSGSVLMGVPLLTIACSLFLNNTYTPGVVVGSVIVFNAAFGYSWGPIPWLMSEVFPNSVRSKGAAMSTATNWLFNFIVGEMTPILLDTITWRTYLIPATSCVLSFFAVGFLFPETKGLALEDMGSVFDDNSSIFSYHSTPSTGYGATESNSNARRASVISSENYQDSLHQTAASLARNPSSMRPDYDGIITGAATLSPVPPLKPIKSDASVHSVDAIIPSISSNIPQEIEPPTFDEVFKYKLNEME

SMILES: OC1OC[C@@H](O)[C@H](O)[C@H]1O (stereo partly drawn) [xylose, D-xylose]
- Vmax [1]: 0.28 g/g/h
- Vmax [2]: 0.36 g/g/h
- Vmax [3]: 0.88 g/g/h
- Vmax [4]: 0.33 g/g/h
- Vmax [5]: 0.35 g/g/h
- Vmax [6]: 0.14 g/g/h
- Vmax [7]: 0.26 g/g/h
- Km [8]: 0.01 to 0.3 g/L

Reference: US9102931B1, “Yeast strains and method for lignocellulose to ethanol production” (priority 2012, dated 2015)
